According to ChEMBL document CHEMBL1128775, “Specific affinity labeling of opioid receptors in rat brain by S-activated sulfhydryldihydromorphine analogs” (Bioorg Med Chem Lett, 1995):

What was measured:
Format in all cases: tissue-based
[1] = biological target: T1, Mu-type opioid receptor (Rattus norvegicus, UniProt P33535); assay: Compound was evaluated for its binding affinity to mu opioid receptors in rat brain
[2] = biological target: T1, Mu-type opioid receptor; assay: Ability to displace [3H][D-Ala2,MePhe4,Gly-ol5]enkephalin ([3H]DAGO) from mu opioid receptors in rat brain
[3] = biological target: T2, Delta-type opioid receptor (Rattus norvegicus, UniProt P33533); assay: Compound was evaluated for its binding affinity to Opioid receptor delta 1 in rat brain
T2 sequence (P33533 whole entry): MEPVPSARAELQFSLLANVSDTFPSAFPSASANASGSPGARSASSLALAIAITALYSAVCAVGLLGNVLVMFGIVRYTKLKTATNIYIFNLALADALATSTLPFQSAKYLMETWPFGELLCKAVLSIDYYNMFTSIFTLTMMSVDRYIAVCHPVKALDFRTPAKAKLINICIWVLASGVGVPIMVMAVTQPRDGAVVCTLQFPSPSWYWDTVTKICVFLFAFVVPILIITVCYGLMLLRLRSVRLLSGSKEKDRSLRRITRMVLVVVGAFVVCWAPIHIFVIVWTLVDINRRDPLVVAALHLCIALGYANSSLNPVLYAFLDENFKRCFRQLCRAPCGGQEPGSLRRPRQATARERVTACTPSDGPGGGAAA

[4] = biological target: T2, Delta-type opioid receptor; assay: Ability to displace [3H][D-Ser2,Leu5]enkephalin-Thr ([3H]DSLET) from Opioid receptor delta 1 in rat brain

T1 sequence (P33535 whole entry): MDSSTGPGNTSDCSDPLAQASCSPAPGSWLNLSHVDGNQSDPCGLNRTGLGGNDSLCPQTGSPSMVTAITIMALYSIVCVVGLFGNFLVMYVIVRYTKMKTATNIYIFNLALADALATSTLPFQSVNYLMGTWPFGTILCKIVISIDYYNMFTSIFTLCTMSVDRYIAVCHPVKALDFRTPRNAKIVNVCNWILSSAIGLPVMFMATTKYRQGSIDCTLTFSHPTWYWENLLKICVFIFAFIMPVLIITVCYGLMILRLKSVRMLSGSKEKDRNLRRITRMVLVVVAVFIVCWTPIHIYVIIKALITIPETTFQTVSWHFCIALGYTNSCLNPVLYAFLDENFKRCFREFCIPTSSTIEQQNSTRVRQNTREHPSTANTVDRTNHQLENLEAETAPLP

CN1CC[C@]23c4c5ccc(O)c4O[C@H]2[C@@H](O)C[C@H](SSc2ccc([N+](=O)[O-])cn2)C3[C@H]1C5 (stereo partly drawn)
EC50 [1]: 1700 nM | IC50 [2]: 58.1 nM | EC50 [3]: 1200 nM | IC50 [4]: 67.9 nM

CN1CC[C@]23c4c5ccc(O)c4O[C@H]2[C@H](SSc2ccc([N+](=O)[O-])cn2)CCC3C1C5 (stereo partly drawn)
EC50 [1]: 58.1 nM | IC50 [2]: 31.1 nM | EC50 [3]: 402 nM | IC50 [4]: 206 nM
